From PMC2719767 (Bioorganic & medicinal chemistry, 2008)
Where a name gives a salt, the structure may show the parent alone.

Key:
D2 receptor [1] = target: T1, D2 receptor (Homo sapiens, UniProt P14416); conditions: cloned human D2-like receptors; ref [11]; cited from earlier work
D4 receptor [2] = target: T2, D4 receptor (Homo sapiens, UniProt P21917); conditions: cloned human D2-like receptors; ref [11]; cited from earlier work
T2 sequence (P21917 1-419): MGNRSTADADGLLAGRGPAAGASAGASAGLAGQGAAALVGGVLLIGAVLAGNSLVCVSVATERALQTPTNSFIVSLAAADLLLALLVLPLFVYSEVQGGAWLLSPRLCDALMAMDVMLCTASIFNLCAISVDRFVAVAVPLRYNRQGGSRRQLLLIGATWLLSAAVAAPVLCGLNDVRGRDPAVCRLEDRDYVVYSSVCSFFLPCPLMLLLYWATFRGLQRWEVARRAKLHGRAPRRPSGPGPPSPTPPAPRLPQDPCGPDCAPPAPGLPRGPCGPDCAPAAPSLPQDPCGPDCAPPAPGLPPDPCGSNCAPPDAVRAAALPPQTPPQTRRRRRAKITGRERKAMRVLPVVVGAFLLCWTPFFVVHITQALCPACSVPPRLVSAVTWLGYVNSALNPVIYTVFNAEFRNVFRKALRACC

D2 receptor [3] = target: T1, D2 receptor; experiment: D2 receptor binding affinity, Pfizer laboratories; conditions: same assay procedure in the same laboratory
D4 receptor [4] = target: T2, D4 receptor; experiment: D4 receptor binding affinity, Pfizer laboratories; conditions: for D2/D4: Table 2, ratio of Ki values, Pfizer laboratories data
D2 receptor [5] = target: T1, D2 receptor; experiment: D2 receptor binding affinity, NIMH-PDSP
D3 receptor = D3 receptor (Homo sapiens, UniProt P35462); experiment: D3 receptor binding affinity, NIMH-PDSP
D4 receptor [6] = target: T2, D4 receptor; experiment: D4 receptor binding affinity, NIMH-PDSP
[7] = Table 2, NIMH-PDSP data, MPA = Missed primary assay threshold of 50% inhibition

T1 sequence (P14416 whole entry): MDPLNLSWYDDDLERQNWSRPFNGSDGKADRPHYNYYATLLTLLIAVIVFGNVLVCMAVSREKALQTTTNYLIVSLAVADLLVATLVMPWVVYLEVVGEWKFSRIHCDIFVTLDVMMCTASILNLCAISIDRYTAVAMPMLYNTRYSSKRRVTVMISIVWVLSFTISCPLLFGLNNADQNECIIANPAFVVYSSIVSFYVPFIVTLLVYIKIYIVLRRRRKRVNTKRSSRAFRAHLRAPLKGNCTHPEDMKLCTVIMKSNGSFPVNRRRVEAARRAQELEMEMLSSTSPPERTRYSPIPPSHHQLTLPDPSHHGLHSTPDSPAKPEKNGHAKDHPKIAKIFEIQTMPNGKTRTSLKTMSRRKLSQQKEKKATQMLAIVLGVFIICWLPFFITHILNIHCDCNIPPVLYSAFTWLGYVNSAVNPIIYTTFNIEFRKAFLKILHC
D3 receptor, sequence (P35462 whole entry): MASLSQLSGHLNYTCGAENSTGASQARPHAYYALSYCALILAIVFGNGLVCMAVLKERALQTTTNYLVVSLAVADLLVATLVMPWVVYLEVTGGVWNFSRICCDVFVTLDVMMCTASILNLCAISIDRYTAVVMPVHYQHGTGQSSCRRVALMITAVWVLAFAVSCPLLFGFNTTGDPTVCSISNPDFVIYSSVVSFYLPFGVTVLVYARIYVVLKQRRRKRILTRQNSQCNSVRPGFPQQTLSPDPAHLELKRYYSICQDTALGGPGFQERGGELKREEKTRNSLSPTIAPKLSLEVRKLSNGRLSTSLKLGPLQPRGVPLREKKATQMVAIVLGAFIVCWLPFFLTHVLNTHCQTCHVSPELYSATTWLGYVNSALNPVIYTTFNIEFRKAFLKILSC

O=C(CCCN1CCN(c2ccc(Cl)cc2)CC1)c1ccc(F)cc1 [Compound 1]
fold D2 potency conferred by butyrophenone (compound 1 vs L745,870) (D2 receptor [1]): < 4 fold
D4 selectivity (D4 receptor [2]): 15 fold

Clc1ccc(N2CCCN(Cc3c[nH]c4ncccc34)CC2)cc1 [Compound 7, 3-{[4-(4-chlorophenyl)-1,4-diazepan-1-yl]methyl}-1H-pyrrolo[2,3-b]pyridine, HCl]
fold lower affinity for the D2 receptor than compound 6 (D2 receptor [3]): 7 fold
fold lower affinity for the D4 receptor than compound 6 (D4 receptor [4]; same assay procedure in the same laboratory): 3 fold

Clc1ccc(N2C3CCC2CN(Cc2c[nH]c4ncccc24)CC3)cc1 (stereo not drawn) [Compound 9, 3-[(1H-pyrrolo[2,3-b]pyridin-3-yl)methyl]-9-(4-chlorophenyl)-3,9-diazabicyclo[4.2.1]nonane]
Ki (D2 receptor [5]): > 10000 nM
Ki (D3 receptor): 335 ± 178 nM
D2/D4 (D4 receptor [6]): >17
Ki (D4 receptor [6]): 584 ± 115 nM

O=C(CCCN1CC2CC1N(c1ccc(Cl)cc1)C2)c1ccc(F)cc1 (stereo not drawn) [Compound 10]
D2/D4 (D4 receptor [4]): 0.33

OC1(c2ccc(Cl)cc2)CCN(Cc2c[nH]c3ncccc23)C1 (stereo not drawn) [Compound 13, 3-(4-chlorophenyl)-1-(1H-pyrrolo[2,3-b]pyridin-3-ylmethyl)pyrrolidin-3-ol]
Ki ± SEM, D2 (D2 receptor [5]; [7]): MPA
Ki ± SEM, D3 (D3 receptor; [7]): MPA

c1cnc(N2CCN(Cc3c[nH]c4ncccc34)CC2)nc1 [Compound 15, 3-{(4-(pyrimidin-2-yl)piperazin-1-yl)methyl}-1H-pyrrolo[2,3-b]pyridine]
D2/D4 (D4 receptor [4]): 21
